Results published in US20200247800A1, “SUBSTITUTED BICYCLIC HETEROCYCLIC COMPOUNDS AS NADPH OXIDASE INHIBITORS” (Glenmark Pharmaceuticals S.A., priority 2017, published 2020).

Target: T1, human NOX4 (Homo sapiens, UniProt Q9NPH5)
T1 construct: expressed in transfected cells; membrane fraction used
T1 sequence (Q9NPH5 1-578): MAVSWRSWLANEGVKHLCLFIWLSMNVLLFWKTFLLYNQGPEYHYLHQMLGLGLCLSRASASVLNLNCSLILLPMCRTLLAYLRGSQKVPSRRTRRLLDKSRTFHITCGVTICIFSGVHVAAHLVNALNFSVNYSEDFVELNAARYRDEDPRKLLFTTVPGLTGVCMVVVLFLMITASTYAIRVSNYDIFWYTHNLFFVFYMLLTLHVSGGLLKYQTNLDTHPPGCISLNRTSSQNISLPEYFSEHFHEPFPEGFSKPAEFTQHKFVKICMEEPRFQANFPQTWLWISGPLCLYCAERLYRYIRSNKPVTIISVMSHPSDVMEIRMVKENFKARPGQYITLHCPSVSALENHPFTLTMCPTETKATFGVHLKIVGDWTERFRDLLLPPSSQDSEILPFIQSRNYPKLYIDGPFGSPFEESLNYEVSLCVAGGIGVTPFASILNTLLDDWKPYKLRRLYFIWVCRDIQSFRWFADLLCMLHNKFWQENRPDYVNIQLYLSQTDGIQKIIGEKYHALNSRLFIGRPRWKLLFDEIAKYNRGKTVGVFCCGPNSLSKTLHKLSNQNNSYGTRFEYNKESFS
T1 sequence (P13498 1-195 partner): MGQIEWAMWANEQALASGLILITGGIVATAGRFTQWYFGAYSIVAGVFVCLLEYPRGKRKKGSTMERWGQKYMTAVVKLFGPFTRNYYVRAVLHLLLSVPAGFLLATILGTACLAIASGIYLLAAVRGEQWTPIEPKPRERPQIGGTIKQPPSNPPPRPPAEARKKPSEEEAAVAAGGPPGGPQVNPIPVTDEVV
Assay: Cell free membrane based in vitro NOX4 assay: H2O2 production by membranes expressing human NOX4, measured with Amplex Red
Format: biochemical
Details: for inhibition at 1 µM: 1.0 μM compound, read-out: Percentage inhibition at 1.0 μM; for inhibition at 10 µM: 10.0 μM compound, read-out: Percentage inhibition at 10.0 μM; for IC50: class symbols
Method in brief: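 Membranes from HEK cells stably overexpressing human NOX4 were preincubated 20 min with inhibitor in pH 7.4 HEPES buffer containing HRP and Amplex Red, then NADPH was added. H2O2 was followed for 10 min by fluorescence (ex 544/em 590 nm). IC50 from nonlinear regression of % maximal uninhibited response.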

Structure (SMILES) | inhibition at 1 µM | inhibition at 10 µM | IC50
O=c1c(O)c(-c2c(F)cccc2F)[nH]c2c1c(CO)nn2C1CC1 [Example 183, 1-Cyclopropyl-6-(2,6-difluorophenyl)-5-hydroxy-3-(hydroxymethyl)-1H-pyrazolo[3,4-b]pyridin-4(7H)-one] | 84.2% | 97.1% | 100 to 150 nM
CCc1nn(CCN2CCOC(C)(C)C2=O)c2[nH]c(-c3c(F)cccc3F)c(O)c(=O)c12 [Example 184, 4-(2-(6-(2,6-Difluorophenyl)-3-ethyl-5-hydroxy-4-oxo-4,7-dihydro-1H-pyrazolo[3,4-b]pyridin-1-yl)ethyl)-2,2-dimethylmorpholin-3-one] | 78.8% | 81.6% | > 150 nM
CS(=O)(=O)N1CCC(c2nn(C3CC3)c3[nH]c(-c4c(F)cccc4F)c(O)c(=O)c23)CC1 [Example 186, 1-Cyclopropyl-6-(2,6-difluorophenyl)-5-hydroxy-3-(1-(methylsulfonyl)piperidin-4-yl)-1H-pyrazolo[3,4-b]pyridin-4(7H)-one] | 71.9% | 81.2% | > 150 nM
CCc1nn(C)c2[nH]c(-c3cnc(-c4ccc(F)cc4F)s3)c(O)c(=O)c12 [Example 187, 6-(2-(2,4-Difluorophenyl)thiazol-5-yl)-3-ethyl-5-hydroxy-1-methyl-1H-pyrazolo[3,4-b]pyridin-4(7H)-one] | 77% | 77.8% | 100 to 150 nM
Cn1nc(CO)c2c(=O)c(O)c(-c3c(F)cccc3F)[nH]c21 [Example 188, 6-(2,6-Difluorophenyl)-5-hydroxy-3-(hydroxymethyl)-1-methyl-1H-pyrazolo[3,4-b]pyridin-4(7H)-one] | 96.5% | 100% | 100 to 150 nM
CC(C)N1CCN(Cc2nn(C)c3[nH]c(-c4c(F)cccc4F)c(O)c(=O)c23)CC1 [Example 192, 6-(2,6-Difluorophenyl)-5-hydroxy-3-((4-isopropylpiperazin-1-yl)methyl)-1-methyl-1H-pyraazolo[3,4-b]pyridin-4(7H)-one] | 90.6% | 95.3% | 50 to 100 nM
Cn1nc(C2CCN(S(C)(=O)=O)CC2)c2c(=O)c(O)c(-c3ccccc3Cl)[nH]c21 [Example 194, 6-(2-chlorophenyl)-5-hydroxy-1-methyl-3-(1-(methylsulfonyl)piperidin-4-yl)-1H-pyrazolo[3,4-b]pyridin-4(7H)-one] | 98.3% | 96% | 50 to 100 nM
Cn1nc(CN2CC[C@H](F)C2)c2c(=O)c(O)c(-c3c(F)cccc3F)[nH]c21 [Example 195, (S)-6-(2,6-Difluorophenyl)-3-((3-fluoropyrrolidin-1-yl)methyl)-5-hydroxy-1-methyl-1H-pyrazolo[3,4-b]pyridin-4(7H)-one] | 97.7% | 100% | 100 to 150 nM
Cn1nc(CN2CCN(CC(F)(F)F)CC2)c2c(=O)c(O)c(-c3c(F)cccc3F)[nH]c21 [Example 196, 3-((4-(2,2,2-trifluoroethyl)piperazin-1-yl)methyl)-6-(2,6-difluorophenyl)-5-hydroxy-1-methyl-1H-pyrazolo[3,4-b]pyridin-4(7H)-one] | 100% | 100% | 100 to 150 nM
C[C@@H]1CN(Cc2nn(C)c3[nH]c(-c4c(F)cccc4F)c(O)c(=O)c23)C[C@H](C)O1 [Example 197, 6-(2,6-Difluorophenyl)-3-((2,6-dimethylmorpholino)methyl)-5-hydroxy-1-methyl-1H-pyrazolo[3,4-b]pyridin-4(7H)-one] | 100% | 100% | 100 to 150 nM
Cn1nc(CO)c2c(=O)c(O)c(-c3ccccc3Cl)[nH]c21 [Example 198, 6-(2-Chlorophenyl)-5-hydroxy-3-(hydroxymethyl)-1-methyl-1H-pyrazolo[3,4-b]pyridin-4(7H)-one] | 87.7% | 86.7% | 50 to 100 nM
Cn1nc(CN2CCOCC2)c2c(=O)c(O)c(-c3ccccc3Cl)[nH]c21 [Example 199, 6-(2-Chlorophenyl)-5-hydroxy-1-methyl-3-(morpholinomethyl)-1H-pyrazolo[3,4-b]pyridin-4(7H)-one] | 86.8% | 93.5% | 100 to 150 nM
O=c1c(O)c(-c2c(F)cccc2F)[nH]c2c1c(CN1CCOCC1)nn2C1CC1 [Example 201, 1-Cyclopropyl-6-(2,6-difluorophenyl)-5-hydroxy-3-(morpholinomethyl)-1H-pyrazolo[3,4-b]pyridin-4(7H)-one] | 74% | 87% | > 150 nM
CCc1nn(CCN2C[C@@H](C)O[C@@H](C)C2)c2[nH]c(-c3ccccc3Cl)c(O)c(=O)c12 [Example 202, 6-(2-Chlorophenyl)-1-(2-((2R,6S)-2,6-dimethylmorpholino)ethyl)-3-ethyl-5-hydroxy-1H-pyrazolo[3,4-b]pyridin-4(7H)-one] | 82.8% | 78% | 100 to 150 nM
CCc1nn(CCO)c2[nH]c(-c3c(F)cccc3F)c(O)c(=O)c12 [Example 203, 6-(2,6-Difluorophenyl)-3-ethyl-5-hydroxy-1-(2-hydroxyethyl)-1H-pyrazolo[3,4-b]pyridin-4(7H)-one] | 82.5% | 77.7% | 50 to 100 nM
O=c1c(O)c(-c2c(F)cccc2F)[nH]c2c1c(C1CCOCC1)nn2-c1ccc(F)cc1 [Example 204, 6-(2,6-Difluorophenyl)-1-(4-fluorophenyl)-5-hydroxy-3-(tetrahydro-2H-pyran-4-yl)-1H-pyrazolo[3,4-b]pyridin-4(7H)-one] | 95.2% | 99.7% | 100 to 150 nM

The next lines start with the values.

inhibition at 1 µM | inhibition at 10 µM | IC50 | Structure (SMILES)
100% | 100% | < 50 nM | CCc1nn(CCC(C)C)c2[nH]c(-c3c(F)cccc3F)c(O)c(=O)c12 [Example 180, 6-(2,6-Difluorophenyl)-3-ethyl-5-hydroxy-1-isopentyl-1H-pyrazolo[3,4-b]pyridin-4(7H)-one]
100% | 100% | 50 to 100 nM | CCc1nn(CCC(C)C)c2[nH]c(-c3ccccc3Cl)c(O)c(=O)c12 [Example 181, 6-(2-Chlorophenyl)-3-ethyl-5-hydroxy-1-isopentyl-1H-pyrazolo[3,4-b]pyridin-4(7H)-one]
100% | 100% | 50 to 100 nM | CCCn1nc(CO)c2c(=O)c(O)c(-c3c(F)cccc3F)[nH]c21 [Example 182, 6-(2,6-Difluorophenyl)-5-hydroxy-3-(hydroxymethyl)-1-propyl-1H-pyrazolo[3,4-b]pyridin-4(7H)-one]
80.1% | 78.2% | 50 to 100 nM | Cn1nc(C2CCN(S(C)(=O)=O)CC2)c2c(=O)c(O)c(-c3c(F)cccc3F)[nH]c21 [Example 185, 6-(2,6-Difluorophenyl)-5-hydroxy-1-methyl-3-(1-(methylsulfonyl)piperidin-4-yl)-1H-pyrazolo[3,4-b]pyridin-4(7H)-one]
99.2% | 98.6% | < 50 nM | Cn1nc(C2CCOCC2)c2c(=O)c(O)c(-c3c(F)cccc3F)[nH]c21 [Example 189, 6-(2,6-Difluorophenyl)-5-hydroxy-1-methyl-3-(tetrahydro-2H-pyran-4-yl)-1H-pyrazolo[3,4-b]pyridin-4(7H)-one]
93.1% | 100% | < 50 nM | O=c1c(O)c(-c2c(F)cccc2F)[nH]c2c1c(C1CCOCC1)nn2C1CC1 [Example 190, 1-Cyclopropyl-6-(2,6-difluorophenyl)-5-hydroxy-3-(tetrahydro-2H-pyran-4-yl)-1H-pyrazolo[3,4-b]pyridin-4(7H)-one]
91.2% | 97.8% | 50 to 100 nM | Cn1nc(CN2CCOCC2)c2c(=O)c(O)c(-c3c(F)cccc3F)[nH]c21 [Example 191, 6-(2,6-difluorophenyl)-5-hydroxy-1-methyl-3-(morpholinomethyl)-1H-pyrazolo[3,4-b]pyridin-4(7H)-one]
84.7% | 75.4% | < 50 nM | Cn1nc(C2CCOCC2)c2c(=O)c(O)c(-c3ccccc3Cl)[nH]c21 [Example 193, 6-(2-Chlorophenyl)-5-hydroxy-1-methyl-3-(tetrahydro-2H-pyran-4-yl)-1H-pyrazolo[3,4-b]pyridin-4(7H)-one]
91.4% | 90.7% | < 50 nM | CCc1nn(CCN2C[C@@H](C)O[C@@H](C)C2)c2[nH]c(-c3c(F)cccc3F)c(O)c(=O)c12 [Example 200, 6-(2,6-Difluorophenyl)-1-(2-((2R,6S)-2,6-dimethylmorpholino)ethyl)-3-ethyl-5-hydroxy-1H-pyrazolo[3,4-b]pyridin-4(7H)-one]
